Experimental data published in PMC7339168 (Journal of Cellular and Molecular Medicine, 2020).

Assays:
[1] = molecular target: T1, JAK3 (Homo sapiens, UniProt P52333)
T1 sequence (P52333 1-1124): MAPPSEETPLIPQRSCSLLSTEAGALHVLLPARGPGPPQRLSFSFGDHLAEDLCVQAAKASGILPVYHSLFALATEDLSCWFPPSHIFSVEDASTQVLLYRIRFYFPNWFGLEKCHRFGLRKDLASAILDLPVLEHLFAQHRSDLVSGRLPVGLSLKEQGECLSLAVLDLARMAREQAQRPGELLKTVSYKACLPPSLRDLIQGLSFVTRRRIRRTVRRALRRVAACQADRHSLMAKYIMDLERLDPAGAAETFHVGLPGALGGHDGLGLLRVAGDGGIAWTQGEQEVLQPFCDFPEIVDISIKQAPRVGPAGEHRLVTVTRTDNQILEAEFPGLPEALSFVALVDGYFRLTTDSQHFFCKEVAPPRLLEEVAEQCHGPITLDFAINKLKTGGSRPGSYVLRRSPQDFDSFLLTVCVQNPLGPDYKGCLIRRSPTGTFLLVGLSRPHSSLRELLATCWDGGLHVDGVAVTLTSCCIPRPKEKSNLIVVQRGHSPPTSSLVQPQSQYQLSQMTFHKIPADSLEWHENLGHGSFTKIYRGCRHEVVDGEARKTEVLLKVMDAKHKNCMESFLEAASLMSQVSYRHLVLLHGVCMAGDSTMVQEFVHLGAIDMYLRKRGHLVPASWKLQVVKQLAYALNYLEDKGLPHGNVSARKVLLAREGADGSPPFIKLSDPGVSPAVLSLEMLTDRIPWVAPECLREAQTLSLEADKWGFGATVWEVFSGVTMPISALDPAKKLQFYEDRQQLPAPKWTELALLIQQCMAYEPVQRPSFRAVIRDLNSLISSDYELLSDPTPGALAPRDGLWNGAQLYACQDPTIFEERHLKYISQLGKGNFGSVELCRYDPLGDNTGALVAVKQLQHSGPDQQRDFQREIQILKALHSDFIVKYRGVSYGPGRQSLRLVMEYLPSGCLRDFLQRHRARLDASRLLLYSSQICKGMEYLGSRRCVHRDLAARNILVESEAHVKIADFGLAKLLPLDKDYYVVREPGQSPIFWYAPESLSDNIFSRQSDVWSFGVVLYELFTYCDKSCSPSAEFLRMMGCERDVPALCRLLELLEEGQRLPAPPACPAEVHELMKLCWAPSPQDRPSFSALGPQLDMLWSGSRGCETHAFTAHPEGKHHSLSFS

[2] = molecular target: T1, JAK3; experiment: KinaseProfiler kinase assay, positive control; assay type: biochemical
[3] = molecular target: TYK2 (Homo sapiens, UniProt P29597); experiment: radiometric KinaseProfiler kinase assay, […] ATP; assay type: biochemical
[4] = molecular target: JAK1 (Homo sapiens, UniProt P23458); experiment: radiometric KinaseProfiler kinase assay, […] ATP; assay type: biochemical
[5] = molecular target: T1, JAK3; experiment: radiometric KinaseProfiler assay with ATP titration (Ki; IC50 […]); also JAK3 immunoprecipitate kinase assay; assay type: biochemical
[6] = molecular target: JAK2 (Homo sapiens, UniProt O60674); experiment: radiometric KinaseProfiler kinase assay, […] ATP; assay type: biochemical
Chain of JAK2 (O60674 whole entry): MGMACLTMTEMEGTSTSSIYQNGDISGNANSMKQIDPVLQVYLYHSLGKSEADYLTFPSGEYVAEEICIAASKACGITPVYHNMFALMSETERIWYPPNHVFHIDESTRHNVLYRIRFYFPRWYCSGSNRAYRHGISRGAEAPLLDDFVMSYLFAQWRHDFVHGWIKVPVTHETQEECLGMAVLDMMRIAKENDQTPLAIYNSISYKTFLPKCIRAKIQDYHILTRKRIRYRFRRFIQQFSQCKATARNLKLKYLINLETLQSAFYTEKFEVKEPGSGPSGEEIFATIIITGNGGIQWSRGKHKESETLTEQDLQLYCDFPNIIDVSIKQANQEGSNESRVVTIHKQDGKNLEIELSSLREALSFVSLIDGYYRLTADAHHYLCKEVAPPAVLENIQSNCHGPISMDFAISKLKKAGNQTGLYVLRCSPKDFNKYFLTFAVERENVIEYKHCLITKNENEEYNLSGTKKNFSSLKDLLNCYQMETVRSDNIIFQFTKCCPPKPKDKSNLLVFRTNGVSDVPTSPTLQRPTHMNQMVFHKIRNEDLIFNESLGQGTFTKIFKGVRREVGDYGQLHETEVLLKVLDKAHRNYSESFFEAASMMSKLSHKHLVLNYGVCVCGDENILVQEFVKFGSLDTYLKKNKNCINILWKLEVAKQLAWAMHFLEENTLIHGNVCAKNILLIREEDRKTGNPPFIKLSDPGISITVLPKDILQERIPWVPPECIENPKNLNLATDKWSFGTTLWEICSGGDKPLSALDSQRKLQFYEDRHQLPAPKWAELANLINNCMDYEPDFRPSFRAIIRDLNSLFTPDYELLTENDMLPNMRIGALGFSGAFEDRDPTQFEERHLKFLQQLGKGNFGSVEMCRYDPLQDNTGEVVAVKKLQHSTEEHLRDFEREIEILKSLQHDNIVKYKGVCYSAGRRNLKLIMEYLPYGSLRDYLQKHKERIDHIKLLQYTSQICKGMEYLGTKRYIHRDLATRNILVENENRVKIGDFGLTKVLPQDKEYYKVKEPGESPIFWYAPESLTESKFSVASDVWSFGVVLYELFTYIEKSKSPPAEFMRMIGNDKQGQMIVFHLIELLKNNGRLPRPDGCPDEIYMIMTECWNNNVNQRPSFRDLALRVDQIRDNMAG

Chain of TYK2 (P29597 whole entry): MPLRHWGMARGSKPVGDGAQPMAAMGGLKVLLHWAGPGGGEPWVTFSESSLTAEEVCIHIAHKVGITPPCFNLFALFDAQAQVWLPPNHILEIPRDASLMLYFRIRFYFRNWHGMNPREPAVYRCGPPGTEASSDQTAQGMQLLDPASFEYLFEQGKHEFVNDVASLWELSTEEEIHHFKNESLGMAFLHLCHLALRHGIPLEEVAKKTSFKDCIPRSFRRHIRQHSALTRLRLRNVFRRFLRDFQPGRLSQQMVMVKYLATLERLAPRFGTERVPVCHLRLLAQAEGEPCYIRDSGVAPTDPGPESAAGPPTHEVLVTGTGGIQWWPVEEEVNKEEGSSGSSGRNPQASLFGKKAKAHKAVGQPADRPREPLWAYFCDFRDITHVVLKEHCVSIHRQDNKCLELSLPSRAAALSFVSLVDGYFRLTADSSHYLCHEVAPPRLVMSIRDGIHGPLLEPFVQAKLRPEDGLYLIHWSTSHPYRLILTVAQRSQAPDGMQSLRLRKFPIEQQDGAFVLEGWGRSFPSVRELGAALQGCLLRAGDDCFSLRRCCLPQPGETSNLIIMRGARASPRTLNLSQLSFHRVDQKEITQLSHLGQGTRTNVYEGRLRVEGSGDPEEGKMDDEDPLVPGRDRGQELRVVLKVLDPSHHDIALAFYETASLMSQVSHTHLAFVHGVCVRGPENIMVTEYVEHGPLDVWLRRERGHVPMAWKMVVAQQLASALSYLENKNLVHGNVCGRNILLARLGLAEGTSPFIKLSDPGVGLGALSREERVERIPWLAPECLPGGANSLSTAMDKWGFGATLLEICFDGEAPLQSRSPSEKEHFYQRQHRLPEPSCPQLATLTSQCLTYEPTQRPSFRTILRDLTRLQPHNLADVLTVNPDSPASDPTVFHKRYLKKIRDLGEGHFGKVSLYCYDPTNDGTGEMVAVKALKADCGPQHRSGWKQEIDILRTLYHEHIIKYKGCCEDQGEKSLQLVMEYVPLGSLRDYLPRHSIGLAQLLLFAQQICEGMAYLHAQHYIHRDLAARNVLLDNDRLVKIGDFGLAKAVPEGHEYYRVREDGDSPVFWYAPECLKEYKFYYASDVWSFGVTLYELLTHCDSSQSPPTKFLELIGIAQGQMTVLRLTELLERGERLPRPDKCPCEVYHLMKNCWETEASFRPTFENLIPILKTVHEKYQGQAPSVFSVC
Chain of JAK1 (P23458 whole entry): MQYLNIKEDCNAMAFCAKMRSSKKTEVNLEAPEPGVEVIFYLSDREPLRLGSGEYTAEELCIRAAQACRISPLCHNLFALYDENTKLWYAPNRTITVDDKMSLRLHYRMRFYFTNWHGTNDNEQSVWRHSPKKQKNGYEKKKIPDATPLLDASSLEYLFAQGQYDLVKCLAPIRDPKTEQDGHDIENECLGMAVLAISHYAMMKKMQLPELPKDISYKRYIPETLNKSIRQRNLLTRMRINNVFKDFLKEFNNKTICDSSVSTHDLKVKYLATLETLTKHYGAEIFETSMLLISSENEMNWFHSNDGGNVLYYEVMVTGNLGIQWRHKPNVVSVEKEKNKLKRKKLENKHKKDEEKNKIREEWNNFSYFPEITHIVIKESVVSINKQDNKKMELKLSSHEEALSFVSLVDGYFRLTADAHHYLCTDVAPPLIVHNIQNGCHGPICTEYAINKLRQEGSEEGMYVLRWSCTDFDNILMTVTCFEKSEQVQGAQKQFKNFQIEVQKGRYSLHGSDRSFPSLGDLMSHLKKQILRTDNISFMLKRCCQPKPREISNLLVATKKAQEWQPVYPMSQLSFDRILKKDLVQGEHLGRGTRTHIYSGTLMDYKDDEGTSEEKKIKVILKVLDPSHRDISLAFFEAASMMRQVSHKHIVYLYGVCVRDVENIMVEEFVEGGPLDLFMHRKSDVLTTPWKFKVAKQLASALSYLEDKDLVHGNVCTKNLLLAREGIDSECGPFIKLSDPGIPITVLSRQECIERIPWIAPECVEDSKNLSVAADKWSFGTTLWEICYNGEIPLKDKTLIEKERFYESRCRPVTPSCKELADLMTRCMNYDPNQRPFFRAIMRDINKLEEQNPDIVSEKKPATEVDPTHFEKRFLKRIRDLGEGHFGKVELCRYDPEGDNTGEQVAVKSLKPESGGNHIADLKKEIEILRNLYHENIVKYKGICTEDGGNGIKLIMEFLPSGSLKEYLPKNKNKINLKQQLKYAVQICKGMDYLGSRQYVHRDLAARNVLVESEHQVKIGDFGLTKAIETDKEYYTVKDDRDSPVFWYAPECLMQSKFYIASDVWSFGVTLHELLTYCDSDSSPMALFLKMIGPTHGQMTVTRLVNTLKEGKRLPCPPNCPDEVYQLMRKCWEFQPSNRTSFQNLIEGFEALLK

## Nc1ncnc2c1ncn2[C@@H]1O[C@H](COP(=O)(O)OP(=O)(O)OP(=O)(O)O)[C@@H](O)[C@H]1O [ATP]
[1]
  Km: 212 ± 25.7 µM

## CN[C@@H]1C[C@H]2O[C@@](C)([C@@H]1OC)n1c3ccccc3c3c4c(c5c6ccccc6n2c5c31)C(=O)NC4 [staurosporine]
[2]
  KinaseProfiler kinase assay, positive control: Staurosporine was used as a positive control for ATP‐competitive inhibition of JAKs

## CC[C@H]1CN2CCc3cc(OC)c(OC)cc3[C@@H]2C[C@@H]1C[C@H]1NCCc2c1[nH]c1ccc(O)cc21 [tubulosine]
[3]
  IC50: 0.0763 µM
[4]
  IC50: 0.0695 µM
[5]
  Ki: 0.0129 ± 0.0013 µM
[6]
  IC50: 0.0849 µM
